Where “and” joins values, the source holds several entries; their conditions need not be identical. Identical values can stand only once. Toxic doses and inconclusive results are not listed.
Tested on: L1210 leukemia ip in BDF1 mice, survival T/C
Test: NCI In Vivo Anticancer Drug Screen. Data for tumor model L1210 Leukemia (intraperitoneal) in B6D2F1 (BDF1) mice
Conditions: higher = longer survival
How it was run: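 Antitumor effect is assessed in tumor-bearing animals. Survival in the compound arm is compared with a vehicle-dosed control arm and expressed as their quotient.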

OC(C1CO1)C(O)C1CO1 (stereo not given)
T/C (endpoint: mean survival time, dose: 5.0 mg/kg/injection, schedule: Q01DX001 (ip), vehicle: saline): 214 % of control
T/C (endpoint: mean survival time, dose: 5.0 mg/kg/injection, schedule: Q01DX009 (ip), vehicle: saline): 95 % of control and 204 % of control and 255 % of control
T/C (endpoint: mean survival time, dose: 5.0 mg/kg/injection, schedule: Q01DX009 (ip), vehicle: water): 108 % of control
T/C (endpoint: mean survival time, dose: 5.0 mg/kg/injection, schedule: Q04DX003 (ip), vehicle: saline): 124 % of control
T/C (endpoint: mean survival time, dose: 6.7 mg/kg/injection, schedule: Q04DX003 (ip), vehicle: saline): 195 % of control and 227 % of control
T/C (endpoint: mean survival time, dose: 7.0 mg/kg/injection, schedule: Q01DX001 (ip), vehicle: saline): 157 % of control and 240 % of control and 117 % of control
T/C (endpoint: mean survival time, dose: 7.0 mg/kg/injection, schedule: Q01DX009 (ip), vehicle: saline): 97 % of control and 115 % of control
T/C (endpoint: mean survival time, dose: 7.0 mg/kg/injection, schedule: Q04DX003 (ip), vehicle: saline): 284 % of control and 122 % of control
T/C (endpoint: mean survival time, dose: 7.0 mg/kg/injection, schedule: Q08DX002 (ip), vehicle: saline): 191 % of control
T/C (endpoint: mean survival time, dose: 7.5 mg/kg/injection, schedule: Q01DX001 (ip), vehicle: saline): 185 % of control
T/C (endpoint: mean survival time, dose: 7.5 mg/kg/injection, schedule: Q01DX009 (ip), vehicle: saline): 169 % of control
T/C (endpoint: mean survival time, dose: 8.0 mg/kg/injection, schedule: Q01DX001 (ip), vehicle: saline): 158 % of control
T/C (endpoint: mean survival time, dose: 8.0 mg/kg/injection, schedule: Q01DX001 (oral), vehicle: saline): 200 % of control
T/C (endpoint: mean survival time, dose: 8.0 mg/kg/injection, schedule: Q04DX003 (ip), vehicle: saline): 300 % of control and 304 % of control
T/C (endpoint: mean survival time, dose: 8.0 mg/kg/injection, schedule: Q08DX002 (ip), vehicle: saline): 193 % of control
T/C (endpoint: mean survival time, dose: 10.0 mg/kg/injection, schedule: Q01DX009 (ip), vehicle: saline): 88 % of control
T/C (endpoint: mean survival time, dose: 10.0 mg/kg/injection, schedule: Q04DX003 (ip), vehicle: saline): 404 % of control and 448 % of control and 471 % of control
T/C (endpoint: mean survival time, dose: 10.6 mg/kg/injection, schedule: Q01DX001 (ip), vehicle: saline): 308 % of control and 105 % of control
T/C (endpoint: mean survival time, dose: 11.25 mg/kg/injection, schedule: Q01DX009 (ip), vehicle: saline): 91 % of control
T/C (endpoint: mean survival time, dose: 12.5 mg/kg/injection, schedule: Q01DX009 (ip), vehicle: saline): 110 % of control
T/C (endpoint: mean survival time, dose: 15.0 mg/kg/injection, schedule: Q04DX003 (ip), vehicle: saline): 161 % of control and 172 % of control and 368 % of control
T/C (endpoint: mean survival time, dose: 16.0 mg/kg/injection, schedule: Q01DX001 (ip), vehicle: saline): 368 % of control
T/C (endpoint: mean survival time, dose: 16.0 mg/kg/injection, schedule: Q01DX001 (sc), vehicle: saline): 180 % of control
T/C (endpoint: mean survival time, dose: 24.0 mg/kg/injection, schedule: Q04DX003 (ip), vehicle: saline): 191 % of control
T/C (endpoint: mean survival time, dose: 64.0 mg/kg/injection, schedule: Q01DX001 (ip), vehicle: saline): 97 % of control
T/C (endpoint: mean survival time, dose: 118.0 mg/kg/injection, schedule: Q08DX002 (ip), vehicle: saline): 105 % of control
T/C (endpoint: median survival time, dose: 1.0 mg/kg/injection, schedule: Q01DX009 (sc), vehicle: water): 111 % of control
T/C (endpoint: median survival time, dose: 2.0 mg/kg/injection, schedule: Q01DX009 (ip), vehicle: water): 188 % of control
T/C (endpoint: median survival time, dose: 2.0 mg/kg/injection, schedule: Q04DX003 (ip), vehicle: water): 122 % of control
T/C (endpoint: median survival time, dose: 2.0 mg/kg/injection, schedule: Q04DX003 (sc), vehicle: water): 111 % of control
T/C (endpoint: median survival time, dose: 2.5 mg/kg/injection, schedule: Q01DX001 (ip), vehicle: water): 122 % of control
T/C (endpoint: median survival time, dose: 4.0 mg/kg/injection, schedule: Q01DX009 (ip), vehicle: water): 116 % of control
T/C (endpoint: median survival time, dose: 4.0 mg/kg/injection, schedule: Q01DX009 (sc), vehicle: water): 105 % of control
T/C (endpoint: median survival time, dose: 4.0 mg/kg/injection, schedule: Q04DX003 (ip), vehicle: water): 166 % of control
T/C (endpoint: median survival time, dose: 4.0 mg/kg/injection, schedule: Q04DX003 (sc), vehicle: water): 155 % of control
T/C (endpoint: median survival time, dose: 8.0 mg/kg/injection, schedule: Q04DX003 (ip), vehicle: water): 94 % of control
T/C (endpoint: median survival time, dose: 8.0 mg/kg/injection, schedule: Q04DX003 (sc), vehicle: water): 100 % of control
T/C (endpoint: median survival time, dose: 10.0 mg/kg/injection, schedule: Q01DX001 (ip), vehicle: water): 154 % of control
T/C (endpoint: median survival time, dose: 20.0 mg/kg/injection, schedule: Q01DX001 (ip), vehicle: water): 103 % of control
T/C (endpoint: median survival time, dose: 40.0 mg/kg/injection, schedule: Q01DX001 (ip), vehicle: water): 99 % of control

Source: PubChem BioAssay AID248 (DTP/NCI, 2004)
